Assay results as given in patent US6737383B1, “Herbicidal oxadiazolidines” (priority 1999, dated 2004).

Experiments:
[1] = system: smallflower flatsedge; experiment: Test B flood test smallflower flatsedge; format: in vivo, Cyperus difformis; conditions: for Plant response rating, S. Flatsedge (0 to 10 scale, 0 is no effect, 10 is complete control) / S. Flatsedge plant response rating (0 to 10 scale, 0 is no effect, 10 is complete control): visual evaluation after twelve to sixteen days; for S. Flatsedge plant response rating (0 to 10 scale, 0 is no effect, 10 is complete control): under heading Pre-emergence
How it was run: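 Each value is a visual injury score relative to controls, with 10 meaning complete control and 0 no effect. Evaluation took place twelve to sixteen days after the 2-leaf-stage plants were treated and kept in the greenhouse.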

[2] = system: bedstraw; experiment: Test B pre/postemergence bedstraw; format: in vivo, Galium aparine
How it was run: (§1)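 Test chemicals in a non-phytotoxic solvent mixture with surfactant were sprayed preemergence onto planted seeds and postemergence onto plants 2 to 18 cm tall (1- to 4-leaf stage). After twelve to sixteen days in a greenhouse, injury was visually rated against untreated controls from 0 (no effect) to 10 (complete control).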

[3] = system: surinam grass; experiment: Test B pre/postemergence surinam grass; format: in vivo, Brachiaria decumbens
How it was run: as §1

[4] = system: blackgrass; experiment: Test B pre/postemergence blackgrass; format: in vivo, Alopecurus myosuroides
How it was run: as §1

[5] = Rate 500 g/ha, Pre-emergence, flood test species, scale 0 to 10 (0 no effect, 10 complete control)
[6] = Preemergence, Rate 62 g/ha, scale of 0 to 10 where 0 is no effect and 10 is complete control
[7] = Preemergence, Rate 125 g/ha, 0 is no effect, 10 is complete control
[8] = Preemergence, Rate 250 g/ha, scale 0 to 10, 0 is no effect, 10 is complete control
[9] = Preemergence, Rate 500 g/ha, scale 0 to 10 (0 no effect, 10 complete control)
[10] = Rate 62 g/ha, Postemergence, scale of 0 to 10 where 0 is no effect and 10 is complete control
[11] = Rate 125 g/ha, Postemergence, scale 0 to 10
[12] = Rate 500 g/ha, Postemergence, scale 0 to 10
[13] = Rate 62 g/ha, flood test species, Pre-emergence
[14] = Rate 125 g/ha, flood test species
[15] = Rate 250 g/ha, Pre-emergence (flood test species), scale 0 to 10, 0 is no effect, 10 is complete control
[16] = Preemergence, Rate 125 g/ha, scale of 0 to 10 where 0 is no effect and 10 is complete control
[17] = Postemergence, Rate 250 g/ha, scale 0 to 10, 0 no effect, 10 complete control
[18] = Postemergence, Rate 500 g/ha, scale of 0 to 10 where 0 is no effect and 10 is complete control
[19] = Preemergence, Rate 500 g/ha, scale 0 to 10, 0 is no effect, 10 is complete control
[20] = Rate 62 g/ha, Postemergence, scale 0 to 10, 0 no effect, 10 complete control
[21] = Rate 125 g/ha, Postemergence, scale 0 to 10, 0 is no effect, 10 is complete control
[22] = Postemergence, Rate 250 g/ha, scale 0 to 10
[23] = Postemergence, Rate 250 g/ha, scale 0 to 10, 0 is no effect, 10 is complete control
[24] = Preemergence, Rate 62 g/ha, scale 0 to 10 (0 no effect, 10 complete control)
[25] = Preemergence, Rate 250 g/ha, scale of 0 to 10 where 0 is no effect and 10 is complete control
[26] = Preemergence, Rate 500 g/ha, scale of 0 to 10 where 0 is no effect and 10 is complete control
[27] = Postemergence, Rate 62 g/ha, scale 0 to 10, 0 is no effect, 10 is complete control
[28] = Postemergence, Rate 125 g/ha, scale of 0 to 10 where 0 is no effect and 10 is complete control
[29] = Postemergence, Rate 250 g/ha, scale of 0 to 10, 0 is no effect, 10 is complete control
[30] = Preemergence, Rate 250 g/ha, scale 0 to 10 (0 no effect, 10 complete control)

## Cc1ccccc1-n1c(=O)on(C(=O)N(c2ccc(-c3ccccc3)cc2)C(C)C)c1=O [Compound 187]
[1]; Rate 62 g/ha, headed Pre-emergence (flood test species), scale 0 to 10 (0 no effect, 10 complete control)
  S. Flatsedge plant response rating: 0
[1]; Rate 125 g/ha, Pre-emergence, flood test species, scale 0 to 10 where 0 is no effect and 10 is complete control
  S. Flatsedge plant response rating: 0
[1]; Rate 250 g/ha, Pre-emergence, flood-test species, scale 0 to 10, 0 is no effect, 10 is complete control
  S. Flatsedge plant response rating: 0
[1]; [5]
  S. Flatsedge plant response rating: 0
[2]; [6]
  Bedstraw plant response rating: 0
[2]; [7]
  Bedstraw plant response rating (0 to 10 scale): 0
[2]; [8]
  Bedstraw plant response rating: 0
[2]; [9]
  Bedstraw plant response rating: 0
[2]; [10]
  Bedstraw plant response rating: 0
[2]; [11]
  Bedstraw plant response rating: 0
[2]; Rate 250 g/ha, Postemergence
  Plant response rating (0 to 10; 0 is no effect, 10 is complete control), Bedstraw: 0
[2]; [12]
  Bedstraw plant response rating: 0
[3]; [6]
  B. signalgrass plant response rating: 0
[3]; [7]
  B. signalgrass plant response rating (0 to 10 scale): 0
[3]; [8]
  B. signalgrass plant response rating: 0
[3]; [9]
  B. signalgrass plant response rating: 0
[3]; [10]
  B. signalgrass plant response rating: 0
[3]; Rate 125 g/ha, Postemergence, scale 0 (no effect) to 10 (complete control)
  B. signalgrass plant response rating: 0
[3]; Rate 250 g/ha, Postemergence, scale 0 to 10, 0 is no effect, 10 is complete control
  Plant response rating, B. signalgrass: 0
[3]; Rate 500 g/ha, Postemergence, scale 0 to 10, 0 no effect, 10 complete control
  B. signalgrass plant response rating: 0
[4]; [6]
  Blackgrass plant response rating: 0
[4]; [7]
  Blackgrass plant response rating (0 to 10 scale): 0
[4]; [8]
  Blackgrass plant response rating: 0
[4]; [9]
  Blackgrass plant response rating: 0
[4]; [10]
  Blackgrass plant response rating: 0
[4]; [11]
  Blackgrass plant response rating: 0
[4]; Rate 250 g/ha, Postemergence
  Plant response rating (0 to 10; 0 is no effect, 10 is complete control), Blackgrass: 0
[4]; [12]
  Blackgrass plant response rating: 0

## CC(C)N(C(=O)n1oc(=O)n(CC#N)c1=O)c1ccc(Cl)cc1 [Compound 476]
[1]; [13]
  Plant response rating, S. Flatsedge (0 to 10 scale, 0 is no effect, 10 is complete control): 0
[1]; [14]
  S. Flatsedge plant response rating (0 to 10 scale, 0 is no effect, 10 is complete control): 0
[1]; [15]
  S. Flatsedge plant response rating: 0
[1]; [5]
  S. Flatsedge plant response rating: 0
[2]; [6]
  Plant response rating, Bedstraw: 0
[2]; [16]
  Plant response rating, Bedstraw: 0
[3]; [17]
  B. signalgrass plant response rating: 0
[3]; [18]
  B. signalgrass plant response rating: 0
[3]; [6]
  Plant response rating, B. signalgrass: 0
[3]; [16]
  Plant response rating, B. signalgrass: 0
[3]; [8]
  B. signalgrass plant response rating: 0
[3]; [19]
  B. signalgrass plant response rating: 0
[3]; [20]
  B. signalgrass plant response rating: 0
[3]; [21]
  B. signalgrass plant response rating: 0
[4]; [22]
  Blackgrass plant response rating: 0
[4]; [18]
  Blackgrass plant response rating: 2
[4]; [6]
  Plant response rating, Blackgrass: 0
[4]; [16]
  Plant response rating, Blackgrass: 0
[4]; [8]
  Blackgrass plant response rating: 0
[4]; [19]
  Blackgrass plant response rating: 0
[4]; [20]
  Blackgrass plant response rating: 0
[4]; [21]
  Blackgrass plant response rating: 0

## CC(C)N(C(=O)n1oc(=O)n(CCl)c1=O)c1ccc(Cl)cc1 [Compound 422]
[1]; Postemergence section (flood test species), Rate 500 g/ha, scale of 0 to 10 where 0 is no effect and 10 is complete control
  S. Flatsedge plant response rating: 0
[1]; Rate 125 g/ha, Postemergence section (flood test species), scale 0 to 10, 0 is no effect, 10 is complete control
  S. Flatsedge plant response rating: 0
[1]; flood test species, listed under Postemergence, Rate 250 g/ha, scale 0 to 10, 0 is no effect, 10 is complete control
  Plant response rating, S. Flatsedge: 0
[3]; [23]
  Plant response rating, B. signalgrass: 0
[3]; [18]
  B. signalgrass plant response rating: 0
[3]; [24]
  Plant response rating, B. signalgrass: 0
[3]; [16]
  Plant response rating, B. signalgrass: 0
[3]; [25]
  B. signalgrass plant response rating: 0
[3]; [26]
  B. signalgrass plant response rating: 0
[3]; [10]
  B. signalgrass plant response rating: 0
[3]; [21]
  B. signalgrass plant response rating: 0
[4]; [23]
  Plant response rating, Blackgrass: 0
[4]; [18]
  Blackgrass plant response rating: 0
[4]; [24]
  Plant response rating, Blackgrass: 0
[4]; [16]
  Plant response rating, Blackgrass: 0
[4]; [25]
  Blackgrass plant response rating: 0
[4]; [19]
  Blackgrass plant response rating: 0
[4]; [10]
  Blackgrass plant response rating: 0
[4]; [21]
  Blackgrass plant response rating: 0

## CC(C)N(C(=O)n1oc(=O)n(CC(=O)C2CCC2)c1=O)c1ccc(Cl)cc1 [Compound 643]
[1]; [13]
  Plant response rating, S. Flatsedge (0 to 10 scale, 0 is no effect, 10 is complete control): 0
[1]; [14]
  S. Flatsedge plant response rating (0 to 10 scale, 0 is no effect, 10 is complete control): 0
[1]; [15]
  S. Flatsedge plant response rating: 0
[1]; Rate 500 g/ha, Pre-emergence section of Table B, 0 to 10 scale (0 no effect, 10 complete control)
  S. Flatsedge plant response rating: 0
[3]; [27]
  Plant response rating, B. signalgrass: 0
[3]; [28]
  Plant response rating, B. signalgrass: 0
[3]; [29]
  B. signalgrass plant response rating: 0
[3]; [18]
  Plant response rating, B. signalgrass: 2
[3]; [6]
  B. signalgrass plant response rating: 0
[3]; [16]
  B. signalgrass plant response rating: 2
[3]; [30]
  Plant response rating, B. signalgrass: 2
[3]; [26]
  Plant response rating, B. signalgrass: 6
[4]; [27]
  Plant response rating, Blackgrass: 0
[4]; [28]
  Blackgrass plant response rating: 0
[4]; [29]
  Blackgrass plant response rating: 0
[4]; [18]
  Plant response rating, Blackgrass: 4
[4]; [6]
  Blackgrass plant response rating: 0
[4]; [16]
  Blackgrass plant response rating: 0
[4]; [30]
  Plant response rating, Blackgrass: 0
[4]; [26]
  Plant response rating, Blackgrass: 8

## CC(C)N(C(=O)n1oc(=O)n(C(C)CCl)c1=O)c1ccc(Cl)cc1 (stereo not drawn) [Compound 456]
[1]; [13]
  Plant response rating, S. Flatsedge (0 to 10 scale, 0 is no effect, 10 is complete control): 0
[1]; [14]
  S. Flatsedge plant response rating (0 to 10 scale, 0 is no effect, 10 is complete control): 0
[1]; [15]
  S. Flatsedge plant response rating: 0
[1]; [5]
  S. Flatsedge plant response rating: 0
[3]; [17]
  B. signalgrass plant response rating: 0
[3]; [18]
  B. signalgrass plant response rating: 2
[3]; [6]
  Plant response rating, B. signalgrass: 0
[3]; [16]
  Plant response rating, B. signalgrass: 0
[3]; [8]
  B. signalgrass plant response rating: 0
[3]; [19]
  B. signalgrass plant response rating: 2
[3]; [20]
  B. signalgrass plant response rating: 0
[3]; [21]
  B. signalgrass plant response rating: 0
[4]; [22]
  Blackgrass plant response rating: 4
[4]; [18]
  Blackgrass plant response rating: 8
[4]; [6]
  Plant response rating, Blackgrass: 0
[4]; [16]
  Plant response rating, Blackgrass: 2
[4]; [8]
  Blackgrass plant response rating: 3
[4]; [19]
  Blackgrass plant response rating: 6
[4]; [20]
  Blackgrass plant response rating: 4
[4]; [21]
  Blackgrass plant response rating: 4

## COC(C)n1c(=O)on(C(=O)N(c2ccc(F)cc2)C(C)C)c1=O (stereo not drawn) [Compound 439]
[1]; [13]
  Plant response rating, S. Flatsedge (0 to 10 scale, 0 is no effect, 10 is complete control): 0
[1]; [14]
  S. Flatsedge plant response rating (0 to 10 scale, 0 is no effect, 10 is complete control): 0
[1]; [15]
  S. Flatsedge plant response rating: 0
[1]; [5]
  S. Flatsedge plant response rating: 0
[3]; [17]
  B. signalgrass plant response rating: 0
[3]; [18]
  B. signalgrass plant response rating: 0
[3]; [6]
  Plant response rating, B. signalgrass: 0
[3]; [16]
  Plant response rating, B. signalgrass: 0
[3]; [8]
  B. signalgrass plant response rating: 0
[3]; [19]
  B. signalgrass plant response rating: 0
[3]; [20]
  B. signalgrass plant response rating: 0
[3]; [21]
  B. signalgrass plant response rating: 0
[4]; [22]
  Blackgrass plant response rating: 0
[4]; [18]
  Blackgrass plant response rating: 0
[4]; [6]
  Plant response rating, Blackgrass: 0
[4]; [16]
  Plant response rating, Blackgrass: 0
[4]; [8]
  Blackgrass plant response rating: 0
[4]; [19]
  Blackgrass plant response rating: 0
[4]; [20]
  Blackgrass plant response rating: 0
[4]; [21]
  Blackgrass plant response rating: 0
